# Source: US20050142581A1, “Microrna as ligands and target molecules” (priority 2003, published 2005)
# Oligonucleotides are written 5' to 3', each unit as a sugar letter and its base; * is a phosphorothioate linkage, no mark a phosphodiester; rarer units and linkages stand in square brackets, end groups in braces. Plain capitals give the bases only. d = 2'-deoxy (DNA)
# Tested on: human CD40 mRNA
# Test: Inhibition of CD40 mRNA levels by oligonucleotides (real-time RT-PCR)
# Assay type: cell-based
# Parameters: concentration or dose not given beside the values
# Conditions: oligodeoxynucleotides with phosphorothioate backbones throughout; averages from three experiments
# Procedure: When cells reach about 80% confluency, they are treated with oligonucleotide. For cells grown in 96-well plates, wells are washed once with 200 μl Opti-MEM-1 reduced-serum medium (Life Technologies) and then treated with 130 μl of Opti-MEM-1 containing 3.75 μg/ml LIPOFECTIN (Life Technologies) and the desired oligonucleotide at a final concentration of 150 nM. After 4 hours of treatment, the medium was replaced with fresh medium. Cells were harvested 16 hours after oligonucleotide treatment.
# Poly(A)+ mRNA was isolated according to Miura et al. (Clin. Chem., 1996, 42, 1758). Briefly, for cells grown on 96-well plates, growth medium was removed from the cells and each well was washed with 200 ul cold PBS. 60 ul lysis buffer (10 mM Tris-HCl, pH 7.6, 1 mM EDTA, 0.5 M NaCl, 0.5% NP-40, 20 mM vanadyl-ribonucleoside complex) was added to each well, the plate was gently agitated and then incubated at room temperature for five minutes. 55 ul of lysate was transferred to Oligo d(T) coated 96 well plates (AGCT Inc., Irvine, Calif.). Plates were incubated for 60 minutes at room temperature, washed 3 times with 200 ul of wash buffer (10 mM Tris-HCl pH 7.6, 1 mM EDTA, 0.3 M NaCl). After the final wash, the plate was blotted on paper towels to remove excess wash buffer and then air-dried for 5 minutes. 60 ul of elution buffer (5 mM Tris-HCl pH 7.6), preheated to 70° C. was added to each well, the plate was incubated on a 90° hot plate for 5 minutes, and the eluate then transferred to a fresh 96 well plate. Cells grown on 100 mm or other standard plates may be treated similarly, using appropriate volumes of all solutions.
# Quantitation of CD40 mRNA levels was determined by real-time PCR (RT-PCR) using the ABI PRISM 7700 Sequence Detection System (PE-Applied Biosystems, Foster City, Calif.) according to manufacturer's instructions. This is a closed-tube, non-gel-based, fluorescence detection system which allows high-throughput quantitation of polymerase chain reaction (PCR) products in real-time.
# As opposed to standard PCR, in which amplification products are quantitated after the PCR is completed, products in RT-PCR are quantitated as they accumulate. This is accomplished by including in the PCR reaction an oligonucleotide probe that anneals specifically between the forward and reverse PCR primers, and contains two fluorescent dyes. A reporter dye (e.g., JOE or FAM, PE-Applied Biosystems, Foster City, Calif.) is attached to the 5′ end of the probe and a quencher dye (e.g., TAMRA, PE-Applied Biosystems, Foster City, Calif.) is attached to the 3′ end of the probe. When the probe and dyes are intact, reporter dye emission is quenched by the proximity of the 3′ quencher dye. During amplification, annealing of the probe to the target sequence creates a substrate that can be cleaved by the 5′-exonuclease activity of Taq polymerase.
# With each cycle, additional reporter dye molecules are cleaved from their respective probes, and the fluorescence intensity is monitored at regular (six-second) intervals by laser optics built into the ABI PRISM 7700 Sequence Detection System. In each assay, a series of parallel reactions containing serial dilutions of mRNA from untreated control samples generates a standard curve that is used to quantitate the percent inhibition after antisense oligonucleotide treatment of test samples.
# RT-PCR reagents were obtained from PE-Applied Biosystems, Foster City, Calif. RT-PCR reactions were carried out by adding 25 ul PCR cocktail (1× Taqman buffer A, 5.5 mM MgCl2, 300 uM each of dATP, dCTP and dGTP, 600 uM of dUTP, 100 nM each of forward primer, reverse primer, and probe, 20 U RNAse inhibitor, 1.25 units AmpliTaq Gold, and 12.5 U MuLV reverse transcriptase) to 96 well plates containing 25 ul poly(A) mRNA solution. […]
row,Substance,% INHIB. (Inhibition of CD40 mRNA Levels by Phosphorothioate Oligodeoxynucleotides) [%]
1,18623 (DNA dC*dC*dA*dG*dG*dC*dG*dG*dC*dA*dG*dG*dA*dC*dC*dA*dC*dT; antisense) [compound 18623],30.71
2,18624 (DNA dG*dA*dC*dC*dA*dG*dG*dC*dG*dG*dC*dA*dG*dG*dA*dC*dC*dA; antisense) [compound 18624],28.09
3,18625 (DNA dA*dG*dG*dT*dG*dA*dG*dA*dC*dC*dA*dG*dG*dC*dG*dG*dC*dA; antisense) [compound 18625],21.89
4,18626 (DNA dC*dA*dG*dA*dG*dG*dC*dA*dG*dA*dC*dG*dA*dA*dC*dC*dA*dT; antisense) [compound 18626],0.00
5,18627 (DNA dG*dC*dA*dG*dA*dG*dG*dC*dA*dG*dA*dC*dG*dA*dA*dC*dC*dA; antisense) [compound 18627],0.00
6,18628 (DNA dG*dC*dA*dA*dG*dC*dA*dG*dC*dC*dC*dC*dA*dG*dA*dG*dG*dA; antisense) [compound 18628],0.00
7,18629 (DNA dG*dG*dT*dC*dA*dG*dC*dA*dA*dG*dC*dA*dG*dC*dC*dC*dC*dA; antisense) [compound 18629],29.96
8,18630 (DNA dG*dA*dC*dA*dG*dC*dG*dG*dT*dC*dA*dG*dC*dA*dA*dG*dC*dA; antisense) [compound 18630],0.00
9,18631 (DNA dG*dA*dT*dG*dG*dA*dC*dA*dG*dC*dG*dG*dT*dC*dA*dG*dC*dA; antisense) [compound 18631],0.00
10,18632 (DNA dT*dC*dT*dG*dG*dA*dT*dG*dG*dA*dC*dA*dG*dC*dG*dG*dT*dC; antisense) [compound 18632],0.00
11,18633 (DNA dG*dG*dT*dG*dG*dT*dT*dC*dT*dG*dG*dA*dT*dG*dG*dA*dC*dA; antisense) [compound 18633],0.00
12,18634 (DNA dG*dT*dG*dG*dG*dT*dG*dG*dT*dT*dC*dT*dG*dG*dA*dT*dG*dG; antisense) [compound 18634],0.00
13,18635 (DNA dG*dC*dA*dG*dT*dG*dG*dG*dT*dG*dG*dT*dT*dC*dT*dG*dG*dA; antisense) [compound 18635],0.00
14,18636 (DNA dC*dA*dC*dA*dA*dA*dG*dA*dA*dC*dA*dG*dC*dA*dC*dT*dG*dA; antisense) [compound 18636],0.00
15,18637 (DNA dC*dT*dG*dG*dC*dA*dC*dA*dA*dA*dG*dA*dA*dC*dA*dG*dC*dA; antisense) [compound 18637],0.00
16,18638 (DNA dT*dC*dC*dT*dG*dG*dC*dT*dG*dG*dC*dA*dC*dA*dA*dA*dG*dA; antisense) [compound 18638],0.00
17,18639 (DNA dC*dT*dG*dT*dC*dC*dT*dG*dG*dC*dT*dG*dG*dC*dA*dC*dA*dA; antisense) [compound 18639],4.99
18,18640 (DNA dC*dT*dC*dA*dC*dC*dA*dG*dT*dT*dT*dC*dT*dG*dT*dC*dC*dT; antisense) [compound 18640],0.00
19,18641 (DNA dT*dC*dA*dC*dT*dC*dA*dC*dC*dA*dG*dT*dT*dT*dC*dT*dG*dT; antisense) [compound 18641],0.00

row,Substance,% INHIB. (Inhibition of CD40 mRNA Levels by Phosphorothioate Oligodeoxynucleotides) [%]
1,18642 (DNA dG*dT*dG*dC*dA*dG*dT*dC*dA*dC*dT*dC*dA*dC*dC*dA*dG*dT; antisense) [compound 18642],0.00
2,18643 (DNA dA*dC*dT*dC*dT*dG*dT*dG*dC*dA*dG*dT*dC*dA*dC*dT*dC*dA; antisense) [compound 18643],0.00
3,18644 (DNA dC*dA*dG*dT*dG*dA*dA*dC*dT*dC*dT*dG*dT*dG*dC*dA*dG*dT; antisense) [compound 18644],5.30
4,18645 (DNA dA*dT*dT*dC*dC*dG*dT*dT*dT*dC*dA*dG*dT*dG*dA*dA*dC*dT; antisense) [compound 18645],0.00
5,18646 (DNA dG*dA*dA*dG*dG*dC*dA*dT*dT*dC*dC*dG*dT*dT*dT*dC*dA*dG; antisense) [compound 18646],9.00
6,18647 (DNA dT*dT*dC*dA*dC*dC*dG*dC*dA*dA*dG*dG*dA*dA*dG*dG*dC*dA; antisense) [compound 18647],0.00
7,18648 (DNA dC*dT*dC*dT*dG*dT*dT*dC*dC*dA*dG*dG*dT*dG*dT*dC*dT*dA; antisense) [compound 18648],0.00
8,18649 (DNA dC*dT*dG*dG*dT*dG*dG*dC*dA*dG*dT*dG*dT*dG*dT*dC*dT*dC; antisense) [compound 18649],0.00
9,18650 (DNA dT*dG*dG*dG*dG*dT*dC*dG*dC*dA*dG*dT*dA*dT*dT*dT*dG*dT; antisense) [compound 18650],0.00
10,18651 (DNA dG*dG*dT*dT*dG*dG*dG*dG*dT*dC*dG*dC*dA*dG*dT*dA*dT*dT; antisense) [compound 18651],0.00
11,18652 (DNA dC*dT*dA*dG*dG*dT*dT*dG*dG*dG*dG*dT*dC*dG*dC*dA*dG*dT; antisense) [compound 18652],0.00
12,18653 (DNA dG*dG*dT*dG*dC*dC*dC*dT*dT*dC*dT*dG*dC*dT*dG*dG*dA*dC; antisense) [compound 18653],19.67
13,18654 (DNA dC*dT*dG*dA*dG*dG*dT*dG*dC*dC*dC*dT*dT*dC*dT*dG*dC*dT; antisense) [compound 18654],15.63
14,18655 (DNA dG*dT*dG*dT*dC*dT*dG*dT*dT*dT*dC*dT*dG*dA*dG*dG*dT*dG; antisense) [compound 18655],0.00
15,18656 (DNA dT*dG*dG*dT*dG*dT*dC*dT*dG*dT*dT*dT*dC*dT*dG*dA*dG*dG; antisense) [compound 18656],0.00
16,18657 (DNA dA*dC*dA*dG*dG*dT*dG*dC*dA*dG*dA*dT*dG*dG*dT*dG*dT*dC; antisense) [compound 18657],0.00
17,18658 (DNA dT*dT*dC*dA*dC*dA*dG*dG*dT*dG*dC*dA*dG*dA*dT*dG*dG*dT; antisense) [compound 18658],0.00
18,18659 (DNA dG*dT*dG*dC*dC*dA*dG*dC*dC*dT*dT*dC*dT*dT*dC*dA*dC*dA; antisense) [compound 18659],5.67
19,18660 (DNA dT*dA*dC*dA*dG*dT*dG*dC*dC*dA*dG*dC*dC*dT*dT*dC*dT*dT; antisense) [compound 18660],7.80
